Results published in US8889677B2, “Substituted triazoles useful as mGlu5 receptor modulators” (Boehringer Ingellheim International GmbH, priority 2012, dated 2014).

Each compound was assayed against T1, human recombinant mGluR5 (Homo sapiens, UniProt P41594) (assay: positive modulation of mGluR5, calcium based FLIPR assay in HEK 293 cells). Conditions: HEK 293 cell line expressing human recombinant mGluR5; EC50 of the modulation of the glutamate response (glutamate approx. 5% basal stimulation); peak height of Ca release fluorescence signal.
T1 construct: expressed in transfected cells; host or cells: HEK 293 cell line cultured with tetracycline, hygromycin and geneticin; tetracycline removed 3-7 days before the assay
T1 sequence (P41594 21-1212): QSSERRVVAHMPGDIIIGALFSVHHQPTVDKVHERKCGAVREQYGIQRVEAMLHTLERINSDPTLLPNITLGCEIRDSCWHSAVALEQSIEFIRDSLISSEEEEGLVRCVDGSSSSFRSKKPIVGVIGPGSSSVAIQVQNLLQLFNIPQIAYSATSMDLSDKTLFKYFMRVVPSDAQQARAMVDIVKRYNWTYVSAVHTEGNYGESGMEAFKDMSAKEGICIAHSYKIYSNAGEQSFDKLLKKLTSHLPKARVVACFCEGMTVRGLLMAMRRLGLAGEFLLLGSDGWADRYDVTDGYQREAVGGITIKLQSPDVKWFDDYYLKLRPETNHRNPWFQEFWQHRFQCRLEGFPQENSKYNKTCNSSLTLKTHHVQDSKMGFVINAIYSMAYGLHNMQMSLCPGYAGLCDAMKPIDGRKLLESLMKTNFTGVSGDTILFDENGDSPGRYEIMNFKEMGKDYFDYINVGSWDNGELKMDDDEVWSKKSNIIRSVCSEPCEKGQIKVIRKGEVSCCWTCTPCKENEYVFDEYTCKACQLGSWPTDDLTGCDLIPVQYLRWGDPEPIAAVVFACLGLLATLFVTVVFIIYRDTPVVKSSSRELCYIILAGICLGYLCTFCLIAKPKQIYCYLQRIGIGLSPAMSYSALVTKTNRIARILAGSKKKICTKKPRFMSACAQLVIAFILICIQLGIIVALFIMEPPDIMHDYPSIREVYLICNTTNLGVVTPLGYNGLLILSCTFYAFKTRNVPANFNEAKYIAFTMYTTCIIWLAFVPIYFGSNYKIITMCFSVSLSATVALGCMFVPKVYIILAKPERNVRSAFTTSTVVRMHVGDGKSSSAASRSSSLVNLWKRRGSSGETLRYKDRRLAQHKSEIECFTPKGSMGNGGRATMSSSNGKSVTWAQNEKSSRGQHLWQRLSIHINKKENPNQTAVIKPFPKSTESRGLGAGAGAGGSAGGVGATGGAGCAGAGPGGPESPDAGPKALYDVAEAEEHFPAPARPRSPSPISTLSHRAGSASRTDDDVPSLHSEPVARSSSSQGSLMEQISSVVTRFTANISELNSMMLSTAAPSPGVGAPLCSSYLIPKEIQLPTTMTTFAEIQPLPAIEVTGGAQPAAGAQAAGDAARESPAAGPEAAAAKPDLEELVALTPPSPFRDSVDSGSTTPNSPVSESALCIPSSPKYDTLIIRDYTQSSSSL
Outline: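 Potentiation EC50 derived by nonlinear fit of peak calcium fluorescence after a near-5%-maximal glutamate challenge, following 5 min compound exposure (intrinsic activity also recorded). Dye-loaded recombinant human mGluR5 HEK 293 cells in Ringer solution pH 7.4, 1% DMSO; plate controls were vehicle (100%) and 10 μM CDPPB (200%).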

| SMILES | EC50 [nM] |
| --- | --- |
| CN1CCN(CCOc2cc(N3CCN(C(=O)Cn4nc(-c5ccc(F)cc5)nc4-c4ccc(F)cc4)CC3)ncn2)CC1 [Example 07.09.28.] | 523 |
| O=C(Cn1nc(-c2ccc(F)cc2)nc1-c1ccc(F)cc1)N1CCN(c2cc(OCC3CCOCC3)ncn2)CC1 [Example 07.09.29.] | 44 |
| COC[C@H](C)Oc1cc(N2CCN(C(=O)Cn3nc(-c4ccc(F)cc4)nc3-c3ccc(F)cc3)CC2)ncn1 [Example 07.09.30.] | 75 |
| Cc1cc(-c2nc(-c3ccccc3)n(CC(=O)N3CCN(c4ncccn4)CC3)n2)ccc1F [Example 07.10.01., 2-(3-(4-fluoro-3-methyl-phenyl)-5-phenyl-(1,2,4)triazol-1-yl)-1-(4-pyrimidin-2-yl-piperazin-1-yl)-ethanone] | 11 |
| COc1ccc(-c2nc(-c3ccccc3)n(CC(=O)N3CCN(c4ncccn4)CC3)n2)cc1 [Example 07.10.02.] | 37 |
| CCc1cccc(-c2nc(-c3ccccc3)n(CC(=O)N3CCN(c4ncccn4)CC3)n2)c1 [Example 07.10.03.] | 15 |
| CCOc1cccc(-c2nc(-c3ccccc3)n(CC(=O)N3CCN(c4ncccn4)CC3)n2)c1 [Example 07.10.04.] | 43 |
| Cc1cccc(-c2nc(-c3ccccc3)n(CC(=O)N3CCN(c4ncccn4)CC3)n2)c1 [Example 07.10.05.] | 17 |
| N#Cc1cccc(-c2nc(-c3ccccc3)n(CC(=O)N3CCN(c4ncccn4)CC3)n2)c1 [Example 07.10.06.] | 164 |
| O=C(Cn1nc(-c2cccc(F)c2)nc1-c1ccccc1)N1CCN(c2ncccn2)CC1 [Example 07.10.07.] | 189 |
| COCc1cccc(-c2nc(-c3ccccc3)n(CC(=O)N3CCN(c4ncccn4)CC3)n2)c1 [Example 07.10.08.] | 181 |
| COc1cc(OC)cc(-c2nc(-c3ccccc3)n(CC(=O)N3CCN(c4ncccn4)CC3)n2)c1 [Example 07.10.09.] | 553 |
| COc1cccc(-c2nc(-c3ccccc3)n(CC(=O)N3CCN(c4ncccn4)CC3)n2)c1 [Example 07.10.10.] | 50 |
| Cc1ccc(-c2nc(-c3ccccc3)n(CC(=O)N3CCN(c4ncccn4)CC3)n2)cc1 [Example 07.10.12.] | 23 |
| CCOc1ccc(-c2nc(-c3ccccc3)n(CC(=O)N3CCN(c4ncccn4)CC3)n2)cc1 [Example 07.10.13.] | 77 |
| O=C(Cn1nc(-c2ccc(F)cc2)nc1-c1ccccc1)N1CCN(c2ncccn2)CC1 [Example 07.10.14.] | 33 |
| Cc1ccc(-c2nc(-c3ccccc3)n(CC(=O)N3CCN(c4ncccn4)CC3)n2)cc1C [Example 07.10.15.] | 24 |
| Cc1cc(C)cc(-c2nc(-c3ccccc3)n(CC(=O)N3CCN(c4ncccn4)CC3)n2)c1 [Example 07.10.16.] | 31 |
| COc1ccc(-c2nc(-c3ccccc3)n(CC(=O)N3CCN(c4ncccn4)CC3)n2)cc1C [Example 07.10.17.] | 43 |
| CC(C)Oc1ccc(-c2nc(-c3ccccc3)n(CC(=O)N3CCN(c4ncccn4)CC3)n2)cc1 [Example 07.10.18.] | 1050 |
| Cc1cccc(-c2nc(-c3ccccc3)nn2CC(=O)N2CCN(c3ncccn3)CC2)c1 [Example 07.10.19.] | 233 |
| CC(C)c1ccc(-c2nc(-c3ccccc3)nn2CC(=O)N2CCN(c3ncccn3)CC2)cc1 [Example 07.10.20.] | 35 |

| SMILES | EC50 [nM] |
| --- | --- |
| N#CCc1ccc(-c2nc(-c3ccccc3)nn2CC(=O)N2CCN(c3ncccn3)CC2)cc1 [Example 07.10.21.] | 1500 |
| Cc1ccc(-c2nc(-c3ccccc3)nn2CC(=O)N2CCN(c3ncccn3)CC2)cc1 [Example 07.10.22.] | 87 |
| O=C(Cn1nc(-c2ccccc2)nc1C1=CCCC1)N1CCN(c2ncccn2)CC1 [Example 07.10.23.] | 459 |
| COCc1ccc(-c2nc(-c3ccccc3)nn2CC(=O)N2CCN(c3ncccn3)CC2)cc1 [Example 07.10.24.] | 300 |
| N#Cc1ccc(-c2nc(-c3ccccc3)nn2CC(=O)N2CCN(c3ncccn3)CC2)cc1 [Example 07.10.25.] | 639 |
| O=C(Cn1nc(-c2ccccc2)nc1C1=CCCCC1)N1CCN(c2ncccn2)CC1 [Example 07.10.26.] | 543 |
| C=C(C)c1nc(-c2ccccc2)nn1CC(=O)N1CCN(c2ncccn2)CC1 [Example 07.10.27.] | 1470 |
| O=C(Cn1nc(-c2ccccc2)nc1-c1ccc(CN2CCOCC2)cc1)N1CCN(c2ncccn2)CC1 [Example 07.10.28.] | 804 |
| COc1cc(N2CCN(C(=O)Cn3nc(-c4ccc(C5CC5)cc4)nc3-c3ccccc3)CC2)ncn1 [Example 07.10.29.] | 219 |
| COc1cc(N2CCN(C(=O)Cn3nc(-c4ccc(C)c(C)c4)nc3-c3ccccc3)CC2)ncn1 [Example 07.10.30.] | 50 |
| COc1cc(N2CCN(C(=O)Cn3nc(-c4ccc(F)c(C(F)(F)F)c4)nc3-c3ccccc3)CC2)ncn1 [Example 07.10.31.] | 270 |
| COc1cc(N2CCN(C(=O)Cn3nc(-c4ccc(F)cc4)nc3-c3ccccc3)CC2)ncn1 [Example 07.10.32.] | 225 |
| COc1cc(N2CCN(C(=O)Cn3nc(-c4ccc(F)c(F)c4)nc3-c3ccccc3)CC2)ncn1 [Example 07.10.33.] | 359 |
| COc1cc(N2CCN(C(=O)Cn3nc(-c4cccc(C(C)C)c4)nc3-c3ccccc3)CC2)ncn1 [Example 07.10.34.] | 157 |
| COc1cc(N2CCN(C(=O)Cn3nc(-c4cccc(C)c4)nc3-c3ccccc3)CC2)ncn1 [Example 07.10.35.] | 98 |
| COc1cc(N2CCN(C(=O)Cn3nc(-c4cc(C)cc(C)c4)nc3-c3ccccc3)CC2)ncn1 [Example 07.10.36.] | 121 |
| COc1cc(N2CCN(C(=O)Cn3nc(-c4ccc(F)c(Cl)c4)nc3-c3ccccc3)CC2)ncn1 [Example 07.10.37.] | 101 |
| COc1cc(N2CCN(C(=O)Cn3nc(-c4cc(F)c(F)c(F)c4)nc3-c3ccccc3)CC2)ncn1 [Example 07.10.39.] | 389 |
| O=C(Cn1nc(-c2ccc(F)cc2)nc1-c1ccccc1)N1CCN(c2ccccn2)CC1 [Example 07.10.40.] | 128 |
| COc1ccc(-c2nc(-c3ccc(F)cc3)nn2CC(=O)N2CCN(c3ccccn3)CC2)cc1 [Example 07.10.41.] | 182 |
| O=C(Cn1nc(-c2ccc(F)cc2)nc1C#Cc1ccccc1)N1CCN(c2ccccn2)CC1 [Example 07.11.01., 2-(3-(4-fluoro-phenyl)-5-phenylethynyl-(1,2,4)triazol-1-yl)-1-(4-pyridin-2-yl-piperazin-1-yl)-ethanone] | 98 |
| O=C(Cn1nc(-c2ccc(F)cc2)nc1C#CC1CCCCC1)N1CCN(c2ccccn2)CC1 [Example 07.11.02.] | 416 |
